The record followed here is EP4745138A1, “THIO-GLUTARIMIDO ISOINDOLINONE DERIVATIVE, BIFUNCTIONAL PROTEIN DEGRADER CONTAINING SAME, AND USES THEREOF” (Gluetacs Therapeutics (Shanghai) Co., Ltd., priority 2023, dated 2025).

In test [1] the target is T1, ALK (Homo sapiens, UniProt Q96SW2+Q9HC35+Q9UM73).
T1 construct: endogenous in cells; host or cells: H2228
The test can be described thus: Western blot, target protein degradation in H2228 Cell. Conditions: substrate protein remaining %, treated at 500 nM and 50 nM, 24 hours. Format: cell-based. As for the experimental part:
(§1) Conventional Western blot assay was performed to evaluate the effects of the compounds of the present disclosure on the expression of target proteins in cells.
(§2) (1) Cell Seeding and Protein Harvesting: The selected cells were processed according to the cell seeding procedure and protein harvesting procedure in Table II-2. Table II-2 Cell Seeding and Protein Harvesting Procedures
(§3) (2) To the collected supernatant, 5X SDS sample loading buffer was added, followed by denaturation at 95°C for 5 minutes. The denatured samples were then separated by SDS-PAGE electrophoresis on a polyacrylamide gel. Proteins were transferred to a nitrocellulose membrane (0.45 µm NC membrane), blocked with blocking buffer at room temperature for 1 hour, and subjected to antibody incubation and development procedures according to the antibody manufacturer's instructions (Cell Signaling Technology).
(§4) Half-Maximal Degradation Concentration value (the drug concentration required for degrading proteins by 50%, abbreviated as DC50) reads method: comparing the grayscale values of Western blot bands from drug-treated samples with those from blank DMSO-treated controls, and identifying the drug concentration range at which the grayscale value is half that of the DMSO-treated control bands.
(§5) DC50 values can be calculated using ImageJ software to measure grayscale values of Western blot bands from drug-treated samples. The concentration-response curve is fitted to estimate the drug concentration corresponding to half the grayscale value.
(§6) Target protein remaining (%) refers to the percentage of target protein remaining in cells after treatment with protein degrader compounds.
(§7) Calculation method for target protein remaining (%): Use ImageJ software to measure grayscale values of Western blot bands from drug (protein degrader)-treated samples. The grayscale value of drug-treated bands is divided by that of internal control protein bands, and the resulting quotient is normalized to obtain the relative percentage of remaining target protein after protein degrader treatment. Target protein degradation rate(%) = 1−target protein remaining(%). [formula]

The subject of test [2] is MM.1S. The experiment in a line: Tumor cell proliferation inhibition (CellTiter-Meiluncell Luminescent Cell Viability Assay). The test is classed as cell-based. Conditions: Homo sapiens, MM1.S, MM.1S, 96 hours, Table I-2, ALK inhibitors; for inhibition at 0.01 µM: 10 nM, read-out: Inhibition Rate at 10 nM (%); for inhibition at 0.5 µM: 500 nM, read-out: Inhibition Rate at 500 nM (%). In outline: (§8)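 Following overnight seeding, tumor cells received serial compound dilutions to final levels that included 10 nM and 500 nM. Viability was assessed by luminescence at the end of the specified exposure time. Cultures were kept at 37°C with 5% CO2.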

Test [3] has as its system MV-4-11. Described as above. The test is classed as cell-based. Conditions: Homo sapiens, 96 hours; for inhibition at 0.01 µM: MV4-11, 10 nM, read-out: Inhibition Rate at 10 nM (%); for inhibition at 0.5 µM: MV4-11, 500 nM, read-out: Inhibition Rate at 500 nM (%). In outline: as §8
For test [4], the system named is MCF-7. The test is described as above. The test is classed as cell-based. The note with it: Homo sapiens, 96 hours, Table I-2, ALK inhibitors; for inhibition at 0.01 µM: MCF7, 10 nM, read-out: Inhibition Rate at 10 nM (%); for inhibition at 0.5 µM: MCF7, 500 nM, read-out: Inhibition Rate at 500 nM (%). An outline of the steps:
as §8

The target in test [5] is T2, human Cereblon WT GST-tagged protein (Homo sapiens, UniProt Q96SW2).
T2 construct: purchased CISBIO 64BDCRBNPEH
T2 sequence (Q96SW2 whole entry): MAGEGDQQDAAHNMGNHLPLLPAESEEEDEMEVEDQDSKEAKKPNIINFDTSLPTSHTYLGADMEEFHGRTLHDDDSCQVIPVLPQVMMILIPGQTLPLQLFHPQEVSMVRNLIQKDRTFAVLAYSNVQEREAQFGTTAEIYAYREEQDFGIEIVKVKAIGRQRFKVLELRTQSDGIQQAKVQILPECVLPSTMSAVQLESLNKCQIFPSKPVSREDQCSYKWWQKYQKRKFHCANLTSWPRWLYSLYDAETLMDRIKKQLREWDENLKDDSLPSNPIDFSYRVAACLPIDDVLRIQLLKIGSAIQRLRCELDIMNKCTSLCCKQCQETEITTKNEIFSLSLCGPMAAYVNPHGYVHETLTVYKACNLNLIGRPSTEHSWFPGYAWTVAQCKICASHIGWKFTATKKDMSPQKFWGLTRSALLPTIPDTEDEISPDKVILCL
The experiment in a line: CRBN-binding affinity, HTRF (CEREBLON BINDING kit). Conditions: for inhibition at 0.5 µM: read-out: Inhibition Rate at 0.5 µM (%); for inhibition at 2 µM: read-out: Inhibition Rate at 2 µM (%). An outline of the steps:
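GST-tagged human wild-type Cereblon is mixed with test compound (final 2 µM and 0.5 µM) plus an anti-GST europium antibody/thalidomide-Red tracer pair. Binding is read as HTRF displacement, with buffer-only blank wells.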
Background: In TR-FRET formats the signal depends on donor and acceptor labels being close together.

Test [6] concerns the target T3, FAK (Homo sapiens, UniProt Q05397).
T3 construct: endogenous in cells; host or cells: A549
The experiment in a line: Western blot, target protein degradation in A549 Cell. Conditions: substrate protein remaining %, treated at 500 nM and 50 nM, 24 hours. The test is classed as cell-based. As for the experimental part:
as §1, §2, §3, §4, §5, §6, §7
Background: A western blot detects proteins with antibodies after separation by electrophoresis.

For test [7], the system named is SW620. The test can be described thus: Tumor cell proliferation inhibition (CellTiter-Meiluncell Luminescent Cell Viability Assay). The test is classed as cell-based. Conditions: Homo sapiens, 96 hours, Table I-3, EGFR inhibitors. In outline:
as §8

For test [8], the system named is RPMI-8226. The test is described as above. Format: cell-based. The note with it: Homo sapiens, 96 hours, Table I-3, EGFR inhibitors. In outline: as §8
Test [9] concerns H1975. Described as above. The test is classed as cell-based. Conditions: Homo sapiens, 96 hours, Table I-3, EGFR inhibitors. In outline:
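Luminescent viability read-out (CellTiter-Meiluncell) after compound exposure for a specified time; IC50 determined. Seeding was done the day before dosing with serially diluted compound, final concentrations including 500 nM and 10 nM. Culture at 37°C, 5% CO2.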

Where two headings read alike, the source gives them in different places.

T1 sequence (Q9HC35+Q9UM73 fused): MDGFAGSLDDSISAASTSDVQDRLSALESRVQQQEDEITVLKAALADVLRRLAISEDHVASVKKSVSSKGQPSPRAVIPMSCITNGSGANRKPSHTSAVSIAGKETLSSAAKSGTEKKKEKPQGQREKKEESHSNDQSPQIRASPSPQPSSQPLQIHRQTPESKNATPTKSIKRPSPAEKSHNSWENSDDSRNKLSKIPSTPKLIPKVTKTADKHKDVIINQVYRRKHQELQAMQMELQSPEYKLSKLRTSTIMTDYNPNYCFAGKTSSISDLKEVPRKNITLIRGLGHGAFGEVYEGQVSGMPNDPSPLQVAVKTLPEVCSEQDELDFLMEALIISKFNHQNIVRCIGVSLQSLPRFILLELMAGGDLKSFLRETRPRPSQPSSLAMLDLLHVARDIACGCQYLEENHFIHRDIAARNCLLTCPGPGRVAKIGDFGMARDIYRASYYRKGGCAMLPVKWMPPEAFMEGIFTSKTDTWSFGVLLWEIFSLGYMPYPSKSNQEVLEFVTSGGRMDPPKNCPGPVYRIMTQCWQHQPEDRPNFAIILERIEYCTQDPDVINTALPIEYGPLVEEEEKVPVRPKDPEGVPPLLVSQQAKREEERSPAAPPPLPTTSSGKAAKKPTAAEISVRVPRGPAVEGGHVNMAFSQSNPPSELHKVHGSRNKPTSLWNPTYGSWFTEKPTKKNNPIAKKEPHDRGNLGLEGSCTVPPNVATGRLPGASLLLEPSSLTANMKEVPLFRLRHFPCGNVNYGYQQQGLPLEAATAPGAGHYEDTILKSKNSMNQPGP
T1 sequence (Q96SW2 whole entry): as the sequence (Q96SW2 whole entry) above
T1 sequence (Q16531 whole entry partner): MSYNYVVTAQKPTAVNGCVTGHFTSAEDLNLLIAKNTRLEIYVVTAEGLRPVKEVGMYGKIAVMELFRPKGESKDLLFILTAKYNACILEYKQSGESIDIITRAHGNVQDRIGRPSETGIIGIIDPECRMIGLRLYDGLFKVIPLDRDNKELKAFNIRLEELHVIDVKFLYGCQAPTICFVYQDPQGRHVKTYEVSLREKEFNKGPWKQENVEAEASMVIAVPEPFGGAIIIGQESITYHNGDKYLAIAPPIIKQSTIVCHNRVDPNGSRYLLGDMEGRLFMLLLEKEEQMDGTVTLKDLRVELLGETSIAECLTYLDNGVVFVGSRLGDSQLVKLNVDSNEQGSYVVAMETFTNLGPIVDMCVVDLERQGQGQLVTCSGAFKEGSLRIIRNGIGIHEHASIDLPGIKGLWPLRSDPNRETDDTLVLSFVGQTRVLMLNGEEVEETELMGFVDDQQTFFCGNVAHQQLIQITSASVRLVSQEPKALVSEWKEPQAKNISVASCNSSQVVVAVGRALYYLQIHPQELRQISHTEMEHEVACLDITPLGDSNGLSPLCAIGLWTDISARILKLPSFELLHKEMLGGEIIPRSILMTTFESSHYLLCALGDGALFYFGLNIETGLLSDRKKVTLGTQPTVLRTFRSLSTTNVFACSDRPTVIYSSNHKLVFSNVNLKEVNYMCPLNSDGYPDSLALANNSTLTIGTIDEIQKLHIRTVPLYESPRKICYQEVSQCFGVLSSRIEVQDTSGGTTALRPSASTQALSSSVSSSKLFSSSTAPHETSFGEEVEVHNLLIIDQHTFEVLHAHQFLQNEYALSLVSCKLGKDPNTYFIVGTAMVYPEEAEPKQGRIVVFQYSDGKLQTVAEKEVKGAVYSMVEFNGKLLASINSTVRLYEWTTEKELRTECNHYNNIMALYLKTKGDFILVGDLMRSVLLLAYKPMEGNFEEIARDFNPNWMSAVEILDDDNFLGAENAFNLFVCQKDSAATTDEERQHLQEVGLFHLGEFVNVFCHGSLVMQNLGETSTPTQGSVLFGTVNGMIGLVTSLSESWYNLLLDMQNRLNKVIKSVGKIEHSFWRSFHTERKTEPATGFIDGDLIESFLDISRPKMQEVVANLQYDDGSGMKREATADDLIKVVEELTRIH
T3 sequence (Q05397 whole entry): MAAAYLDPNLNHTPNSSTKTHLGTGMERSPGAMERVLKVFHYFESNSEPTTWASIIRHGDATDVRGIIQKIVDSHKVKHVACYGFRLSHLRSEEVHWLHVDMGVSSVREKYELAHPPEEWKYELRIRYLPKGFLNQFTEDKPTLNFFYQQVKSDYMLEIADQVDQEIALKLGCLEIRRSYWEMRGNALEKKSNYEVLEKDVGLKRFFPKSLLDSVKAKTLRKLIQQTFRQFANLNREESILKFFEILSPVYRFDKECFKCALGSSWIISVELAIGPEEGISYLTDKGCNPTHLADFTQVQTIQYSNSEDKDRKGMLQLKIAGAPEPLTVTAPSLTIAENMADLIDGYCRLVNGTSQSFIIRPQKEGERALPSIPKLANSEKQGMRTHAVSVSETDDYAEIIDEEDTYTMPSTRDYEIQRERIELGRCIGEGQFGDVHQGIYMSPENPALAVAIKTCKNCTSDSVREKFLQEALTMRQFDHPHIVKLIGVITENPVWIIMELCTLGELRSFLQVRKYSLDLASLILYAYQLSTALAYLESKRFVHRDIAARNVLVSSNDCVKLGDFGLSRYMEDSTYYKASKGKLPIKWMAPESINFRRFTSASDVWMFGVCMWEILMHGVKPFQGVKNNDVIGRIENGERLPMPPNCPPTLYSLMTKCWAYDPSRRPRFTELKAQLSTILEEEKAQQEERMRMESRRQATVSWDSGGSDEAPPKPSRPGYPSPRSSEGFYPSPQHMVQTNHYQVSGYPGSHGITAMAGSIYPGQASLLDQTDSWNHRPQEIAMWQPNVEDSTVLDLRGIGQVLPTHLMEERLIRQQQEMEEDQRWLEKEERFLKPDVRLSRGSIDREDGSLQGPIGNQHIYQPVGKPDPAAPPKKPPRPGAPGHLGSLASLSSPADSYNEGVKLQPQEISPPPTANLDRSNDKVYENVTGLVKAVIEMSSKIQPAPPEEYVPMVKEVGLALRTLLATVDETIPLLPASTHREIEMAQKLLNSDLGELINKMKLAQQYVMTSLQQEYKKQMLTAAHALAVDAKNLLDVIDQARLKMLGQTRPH

As to `COc1cc(N2CCN(Cc3ccc4c(c3)CN(C3CCC(=O)NC3=O)C4=S)CC2)ccc1Nc1ncc(Cl)c(Nc2ccccc2P(C)(C)=O)n1` (centres unmarked) [GT-08675, 3-(5-((4-(4-((5-chloro-4-((2-(dimethylphosphoryl)phenyl)amino)pyrimidin-2-yl)amino)-3-methoxyphenyl)piperazin-1-yl)methyl)-1-thioxoisoindolin-2-yl)piperidine-2,6-dione], the “Degradation of substrate protein ALK” value in test [1] was “A (0% ≤ substrate protein remaining % ≤ 80%)”. Moreover, the inhibition at 0.01 µM lay in the range of 10 to 20% in [2]; 10 to 20% in [3] (Table I-2, ALK inhibitors); 20 to 30% in [4]. Also, the inhibition at 0.5 µM is 30 to 40% in test [2]; 70 to 80% in test [3] (Table I-2, ALK inhibitors); 40 to 50% in [4]; 80 to 100% in test [5]. Moreover, the inhibition at 2 µM in [5] was in the range of 80 to 100%.
With `Cc1cc(Nc2ncc(Cl)c(Nc3ccccc3S(=O)(=O)C(C)C)n2)c(OC(C)C)cc1C1CCN(Cc2cccc3c2CN(C2CCC(=O)NC2=O)C3=S)CC1` (centres unmarked) [GT-08676, 3-(4-((4-(4-((5-chloro-4-((2-(isopropylsulfonyl)pheny 1)amino)pyrimidin-2-yl)amino)-5-isopropoxy-2-methylphenyl)piperidin-1-yl)methyl)-1-thioxoisoindolin-2-yl)piperidine-2,6-dione], in test [1], the “Degradation of substrate protein ALK” value is “A (0% ≤ substrate protein remaining % ≤ 80%)”. Besides, the inhibition at 0.01 µM lay within 10 to 20% in [2]; 40 to 50% in [3] (Table I-2, ALK inhibitors); 40 to 50% in [4]. Further, the inhibition at 0.5 µM in test [2] fell in the range of 30 to 40%; in test [3] (Table I-2, ALK inhibitors), 60 to 70%; in test [4] it was 60 to 70%; in test [5], 40 to 53%. For the same compound, in test [5], the inhibition at 2 µM lay within 60 to 80%.
For `Cc1cc(Nc2ncc(Cl)c(Nc3ccccc3S(=O)(=O)C(C)C)n2)c(OC(C)C)cc1C1CCN(Cc2ccc3c(c2)C(=S)N(C2CCC(=O)NC2=O)C3)CC1` (centres unmarked) [GT-08678, 3-(6-((4-(4-((5-chloro-4-((2-(isopropylsulfonyl)pheny 1)amino)pyrimidin-2-yl)amino)-5-isopropoxy-2-methylphenyl)piperidin-1-yl)methyl)-1-thioxoisoindolin-2-yl)piperidine-2,6-dione], in [1], the “Degradation of substrate protein ALK” value is reported as “A (0% ≤ substrate protein remaining % ≤ 80%)”. Besides, the inhibition at 0.01 µM is 0 to 10% in test [2] and -20 to -10% in test [4]. For the same compound, the figures for the inhibition at 0.5 µM in test [2], in test [4] and in test [5] were 50 to 60%, 40 to 50% and 40 to 53%, respectively. In addition, in [5], the inhibition at 2 µM fell in the range of 60 to 80%.
`COc1cc(N2CCN(Cc3ccc4c(c3)C(=S)N(C3CCC(=O)NC3=O)C4)CC2)ccc1Nc1ncc(Cl)c(Nc2ccccc2P(C)(C)=O)n1` (centres unmarked) [GT-08679, 3-(6-((4-(4-((5-chloro-4-((2-(dimethylphosphoryl)phenyl)amino)pyrimidin-2-yl)amino)-3-methoxyphenyl)piperazin-1-yl)methyl)-1-thioxoisoindolin-2-yl)piperidine-2,6-dione]: the “Degradation of substrate protein ALK” value in test [1] is recorded as “A (0% ≤ substrate protein remaining % ≤ 80%)”. Moreover, the inhibition at 0.01 µM in test [2] lay within 10 to 20%; in [3] (Table I-2, ALK inhibitors), 50 to 60%; in test [4] it was 20 to 30%. In addition, the inhibition at 0.5 µM in test [2] lay in the range of 20 to 30%; in test [3] (Table I-2, ALK inhibitors), 80 to 100%; in test [4], 40 to 50%; in test [5], 60 to 80%. Further, the inhibition at 2 µM in [5] is 80 to 100%.
For the compound `COc1cc(N2CCC(N(C)Cc3ccc4c(c3)C(=S)N(C3CCC(=O)NC3=O)C4)CC2)ccc1Nc1ncc(Cl)c(Nc2ccccc2P(C)(C)=O)n1` (centres unmarked) [GT-08680, 3-(6-(((1-(4-((5-chloro-4-((2-(dimethylphosphoryl)phenyl)amino)pyrimidin-2-yl)amino)-3-methoxyphenyl)piperidin-4-yl)(methyl)amino)methyl)-1-thioxoisoindolin-2-yl)piperidine-2,6-dione], in [1], the “Degradation of substrate protein ALK” value is given as “A (0% ≤ substrate protein remaining % ≤ 80%)”. Further, in [2], the inhibition at 0.01 µM fell in the range of 0 to 10% and the inhibition at 0.5 µM lay within 50 to 60%. Besides, in [3] (Table I-2, ALK inhibitors), the inhibition at 0.01 µM lay within 10 to 20% and the inhibition at 0.5 µM lay in the range of 60 to 70%. In test [5], the inhibition at 0.5 µM lay within 60 to 80% and the inhibition at 2 µM was in the range of 80 to 100%.
With `CNC(=O)c1ccccc1Nc1cc(Nc2cc(C)c(C3CCN(Cc4ccc5c(c4)CN(C4CCC(=O)NC4=O)C5=S)CC3)cc2OC(C)C)ncc1C(F)(F)F` (centres unmarked) [GT-08782, 2-((2-((4-(1-((2-(2,6-dioxopiperidin-3-yl)-1-thioxoisoindolin-5-yl)methyl)piperidin-4-yl)-2-isopropoxy-5-methylphenyl)amino)-5-(trifluoromethyl)pyridin-4-yl)amino)-N-methylbenzamide], the “Degradation of substrate protein FAK” value in test [6] was “A (0% ≤ substrate protein remaining % ≤ 80%)”.
Turning to `CS(=O)(=O)c1cccc(CNc2nc(Nc3ccc(N4CCN(Cc5cccc6c5CN(C5CCC(=O)NC5=O)C6=S)CC4)cc3)ncc2C(F)(F)F)c1` (centres unmarked) [GT-08784, 3-(4-((4-(4-((4-((3-(methylsulfonyl)benzyl)amino)-5-(trifluoromethyl)pyrimidin-2-yl)amino)phenyl)piperazin-1-yl)methyl)-1-thioxoisoindolin-2-yl)piperidine-2,6-dione], the “Degradation of substrate protein FAK” value in test [6] is “A (0% ≤ substrate protein remaining % ≤ 80%)”. In addition, in test [5], the inhibition at 0.5 µM is 53 to 60% and the inhibition at 2 µM lay in the range of 80 to 100%.
Turning to `C#Cc1cccc(Nc2ncnc3cc(OCCOC)c(OCCOC)cc23)c1` [erlotinib, Erlotinib, reference compound], the inhibition at 0.01 µM in test [7] (SW-620, 10 nM, read-out: Inhibition Rate at 10 nM (%)) lay in the range of 10 to 20%; in [8] (10 nM, read-out: Inhibition Rate at 10 nM (%)) it was 20 to 30%; in [9] (NCI-H1975, 10 nM, read-out: Inhibition Rate at 10 nM (%)), 0 to 5%; in test [3] (Table I-3, EGFR inhibitors), 0 to 5%. The inhibition at 0.5 µM in test [7] (SW-620, 500 nM, read-out: Inhibition Rate at 500 nM (%)) lay within 10 to 20%; in [8] (500 nM, read-out: Inhibition Rate at 500 nM (%)) it was 20 to 30%; in [9] (NCI-H1975, 500 nM, read-out: Inhibition Rate at 500 nM (%)) it was 0 to 5%; in [3] (Table I-3, EGFR inhibitors) it was 10 to 20%.

Usually inhibition stands for the drop in the measured response relative to a control, in per cent.
